Data from patent US8344115B2, “Immunoassay for specific determination of S-adenosylmethionine and analogs thereof in biological samples” (priority 2008, dated 2013).

Test system: Rabbit antiserum (raised against AdaM-BSA)
Assay: Assay 1: end point competitive ELISA with rabbit antibody and antibody specificity (goat anti-rabbit strips, AdaM-HRP conjugate)
Format: binding
Details: rabbit antiserum 1:12,500, duplicate
Procedure: New Zealand White rabbits were used for polyclonal antibody production. Immunization (1 ml total volume) was carried out with subcutaneous injections at multiple sites. Initial injection utilizes 1:1 mixture of complete Freund Adjuvant and AdaM-BSA conjugate solution in PBS upon emulsification. Subsequent injections use incomplete Freund adjuvant. The immunization was on 21 days cycle schedule, the animals were bleed from the ear artery (rabbit sedated) between 7 to 14 days after injection, normally on the 10th day. The blood was then processed to serum via centrifugation to remove red blood cells and clots. Immune response was detected after three booster injections. See FIG. 1 for a typical positive antibody response (indicated by antibody titer determination) wherein NA005 and 006 are animal designation numbers, 0 represents pre-bleed, 1 represents the first bleed after 4 immunizations.
4-1. Assay 1 Assay (End Point) with Rabbit Antibody and Antibody Specificity
• 1. Goat anti-rabbit coated microtiter well strips. • 2. —Rabbit antiserum diluted in incubation buffer (IB: 10 mM phosphate, 150 mM NaCl, 0.2% BSA, 0.1% Tween 20, 0.1% Proclin, pH 7.4) • 3. An IB+Tris (100 mM) buffer, pH 8.5 • 4. Samples: • (a) SAMe toluenesulfonate (tosylate) disulfate at concentration from […] to 1.4×10^−5 M in IB containing BSA 0.5%, and use 0.5% BSA-IB as zero sample. • (b) SAH at concentration from zero and 1.4×10^−8 to 1.4×10^−4 M. • (c) Adenosine at concentration from zero and 5.6×10^−9 M. to 5.6×10^−5 M • (d) Guanosine at concentration from zero and 3.0×10^−9 M to 3.0×10^−5 M • 5. AdaM-HRP conjugate (diluted to HRP concentration @30 μg/mL) in IB. • 6. —HRP substrate: one reagent substrate solution NeA-blue Tetramethylbenzidine Substrate, Clinical Science Products, Inc., Mansfield, Mass. • 7. 1N phosphoric acid Procedure: • 1. —The rabbit antiserum was diluted 1:12,500 in IB and pre-incubated (60 μl/well) in goat-antirabbit coated strips for at least one hour. • 2. Excess antibody was then decanted, washed, and blot dry. • 3. To each well was then added 10 μl of the pH 8.5 IB+Tris buffer followed by 25 μl of samples. The mixture was incubated on a orbital shaker for 25 min. All samples were tested in duplicate except the zero sample, in 6 wells. • 4. Twenty five microliter (25 μl) of AdaM-HRP conjugate solution was then added and incubated for additional 25 min with shaking. • 5. The assay mixture was then decanted, washed, and blot dry. • 6. To each well was added 60 μl/well of HRP substrate and incubate for 15 min. • 7. Stop the substrate development with 120 μl/well of 1N phosphoric acid. • 8. Read OD450 on a Perkin Elmer Lambda (microtiter plate) Reader. Results: (See Table 1 below)

Work on Nc1ncnc2c1ncn2[C@@H]1O[C@H](CSCC[C@H](N)C(=O)O)[C@@H](O)[C@H]1O [SAH, S-Adenosylhomocysteine] yielded an OD450 (sample concentration 1.4E−4 (M)) of 0.209, an OD450 (sample concentration 1.4E−5 (M)) of 0.244 and an OD450 (sample concentration 1.4E−6 (M)) of 0.293. The OD450 (sample concentration 1.4E−7 (M)) was 0.323 and the OD450 (sample concentration 1.4E−8 (M)) was 0.337.

Nc1ncnc2c1ncn2[C@@H]1O[C@H](CO)[C@@H](O)[C@H]1O [Adenosine] showed an OD450 (sample concentration 5.6E−5 (M)) of 0.256, an OD450 (sample concentration 5.6E−6 (M)) of 0.300 and an OD450 (sample concentration 5.6E−7 (M)) of 0.305. It also gave an OD450 (sample concentration 5.6E−8 (M)) of 0.339 and an OD450 (sample concentration 5.6E−9 (M)) of 0.342.

With Nc1nc2c(ncn2[C@@H]2O[C@H](CO)[C@@H](O)[C@H]2O)c(=O)[nH]1 [Guanosine] the OD450 (sample concentration 3.0E−5 (M)) was 0.371, the OD450 (sample concentration 3.0E−6 (M)) was 0.383 and the OD450 (sample concentration 3.0E−7 (M)) was 0.374. For the same molecule, the OD450 (sample concentration 3.0E−8 (M)) was 0.324 and the OD450 (sample concentration 3.0E−9 (M)) was 0.350.
